# Assay results reported in patent publication US11717508B2, “Compounds, compositions, and methods for inhibiting bacterial growth” (priority 2016, dated 2023).
# Where “and” joins values, the source holds several entries; their conditions need not be identical. Equal entries are not always repeated. Where two headings read alike, the source gives them in different places.
# System: DosRST regulon
# Type: cell-based
structure (smiles),measurement,setting,value
"C[C@@H]1CC[C@H]2[C@@H](C)C(=O)O[C@@H]3O[C@]4(C)CC[C@@H]1[C@]32OO4 [HC101A, artemisinin, reference compound]",downregulation of tgs1 gene (transcriptional profiling),"CDC1551, 40 μM, 6 days",~100 fold
same,Counts per million (CPM) WT_HC101A,gene MT0055,35.17 CPM and 29.03 CPM
same,log2 Fold change,gene MT0055,−1.288
same,Counts per million (CPM) WT_HC101A,gene MT0062 (Rv0056 rp11),104.6 CPM and 99.67 CPM
same,log2 Fold change,gene MT0062 (Rv0056 rp11),−1.059
same,log2 Fold change,gene MT0086 Rv0079,−1.314
same,Counts per million (CPM) WT_HC101A,gene MT0105 (Rv0096 PPE),8.529 CPM and 7.796 CPM
same,log2 Fold change,gene MT0105 (Rv0096 PPE),−1.583
same,Counts per million (CPM) WT_HC101A,gene MT0106 (Rv0097),24.38 CPM and 21.53 CPM
same,log2 Fold change,gene MT0106 (Rv0097),−1.646
same,Counts per million (CPM) WT_HC101A,gene MT0107 (Rv0098),11.7 CPM and 9.891 CPM
same,log2 Fold change,gene MT0107 (Rv0098),−1.652
same,Counts per million (CPM) WT_HC101A,gene MT0108 (Rv0099 fadD10),39.35 CPM and 32.64 CPM
same,log2 Fold change,gene MT0108 (Rv0099 fadD10),−1.057
same,Counts per million (CPM) WT_HC101A,gene MT0117,157.5 CPM and 202.6 CPM
same,log2 Fold change,gene MT0117,−1.008
same,Counts per million (CPM) WT_HC101A,gene MT0122 (Rv0113 gmhA),36.48 CPM and 25.54 CPM
same,log2 Fold change,gene MT0122 (Rv0113 gmhA),−1.031
same,Counts per million (CPM) WT_HC101A,gene MT0124,5.295 CPM and 3.898 CPM
same,log2 Fold change,gene MT0124,−1.954
same,Counts per million (CPM) WT_HC101A,gene MT0175 (Rv0166 fadD5),67.07 CPM and 45.73 CPM
same,log2 Fold change,gene MT0175 (Rv0166 fadD5),−1.959
same,Counts per million (CPM) WT_HC101A,gene MT0176,118.5 CPM and 96.7 CPM
same,log2 Fold change,gene MT0176,−1.284
same,Counts per million (CPM) WT_HC101A,gene MT0178 (Rv0169 mcel),178.5 CPM and 133.6 CPM
same,log2 Fold change,gene MT0178 (Rv0169 mcel),−1.664
same,log2 Fold change,gene MT0179 (Rv0170),−1.755
same,log2 Fold change,gene MT0180 (Rv0171),−1.645
same,log2 Fold change,gene MT0181 (Rv0172),−1.502
same,log2 Fold change,gene MT0182 (Rv0173 IprK),−1.638
same,log2 Fold change,gene MT0183 (Rv0174),1.264
same,log2 Fold change,gene MT0241 (Rv0231 fadE4),−1.266
same,log2 Fold change,gene MT0244 (Rv0233 nrdB),−1.533
same,log2 Fold change,gene MT0329 (Rv0315),−1.589
same,log2 Fold change,gene MT0417,−1.313
same,log2 Fold change,gene MT0423 (Rv0410c pknG),−1.948
same,log2 Fold change,gene MT0424 (Rv0411c glnH),−1.654
same,log2 Fold change,gene MT0425 (Rv0412c),−1.504
same,log2 Fold change,gene MT0429 (Rv0416),−1.414
same,log2 Fold change,gene MT0434,−1.079
same,log2 Fold change,gene MT0524,−1.085
same,log2 Fold change,gene MT0595 Rv0569,−2.701
same,log2 Fold change,gene MT0596 Rv0570 nrdZ,−4.516
same,log2 Fold change,gene MT0597 Rv0571c,−2.001
same,log2 Fold change,gene MT0599 Rv0572c,−3.648
same,log2 Fold change,gene MT0600,−4.304
same,log2 Fold change,gene MT0601 Rv0573c,−2.988
same,log2 Fold change,gene MT0602 Rv0574c,−3.56
same,log2 Fold change,gene MT0637 (Rv0608),−1.073
same,log2 Fold change,gene MT0735 (Rv0708 rplP),−1.134
same,log2 Fold change,gene MT0736 (Rv0709 rpmC),−1.065
same,log2 Fold change,gene MT0741,−1.181
same,log2 Fold change,gene MT0741.1 (Rv0715 rplX),−1.23
same,log2 Fold change,gene MT0742.1 (Rv0717 rpsN),−1.057
same,log2 Fold change,gene MT0747 (Rv0722 rpmD),−1.393
same,log2 Fold change,gene MT0846 Rv0824c desA1,−1.662
same,log2 Fold change,gene MT0877 (Rv0854),−1.066
same,log2 Fold change,gene MT0898,−3.3
same,log2 Fold change,gene MT0908 (Rv0885),−1.929
same,log2 Fold change,gene MT0909 (Rv0886 fprB),−1.498
same,log2 Fold change,gene MT0911 (Rv0888),−2.361
same,log2 Fold change,gene MT1002 (Rv0974c accD2),−1.787
same,log2 Fold change,gene MT1019 (Rv0990c),−1.168
same,log2 Fold change,gene MT1020,−1.37
same,log2 Fold change,gene MT1056 (Rv1037c),−1.377
same,log2 Fold change,gene MT1095 Rv1065,−1.172
same,Counts per million (CPM) WT_HC101A,gene MT1823 (Rv1773c),189.6 CPM and 111.2 CPM
same,log2 Fold change,gene MT1823 (Rv1773c),−1.79
same,Counts per million (CPM) WT_HC101A,gene MT1840 (Rv1791 PE),169.4 CPM and 147.4 CPM
same,log2 Fold change,gene MT1840 (Rv1791 PE),−1.118
same,Counts per million (CPM) WT_HC101A,gene MT1850 (Rv1812c),69.36 CPM and 114.1 CPM
same,log2 Fold change,gene MT1850 (Rv1812c),−1.173
same,log2 Fold change,gene MT1851 Rv1813c,−4.29
same,Counts per million (CPM) WT_HC101A,gene MT1882 (Rv1834),28.5 CPM and 25.48 CPM
same,log2 Fold change,gene MT1882 (Rv1834),−1.56
same,Counts per million (CPM) WT_HC101A,gene MT1932,219.8 CPM and 285.7 CPM
same,log2 Fold change,gene MT1932,−1.182
same,Counts per million (CPM) WT_HC101A,gene MT1942,74.52 CPM and 69.7 CPM
same,log2 Fold change,gene MT1942,−1.048
same,Counts per million (CPM) WT_HC101A,gene MT1943,65.44 CPM and 61.15 CPM
same,log2 Fold change,gene MT1943,−1.048
same,Counts per million (CPM) WT_HC101A,gene MT1955 (Rv1904),88.58 CPM and 104.4 CPM
same,log2 Fold change,gene MT1955 (Rv1904),−1.006
same,Counts per million (CPM) WT_HC101A,gene MT1959 (Rv1918c PPE),62.82 CPM and 65.51 CPM
same,log2 Fold change,gene MT1959 (Rv1918c PPE),−1.121
same,Counts per million (CPM) WT_HC101A,gene MT1986 (Rv1936),47.53 CPM and 27.87 CPM
same,log2 Fold change,gene MT1986 (Rv1936),−2.373
same,Counts per million (CPM) WT_HC101A,gene MT1987 (Rv1937),66.35 CPM and 34.04 CPM
same,log2 Fold change,gene MT1987 (Rv1937),−2.295
same,Counts per million (CPM) WT_HC101A,gene MT1988 (Rv1938 cphB),24.12 CPM and 13.5 CPM
same,log2 Fold change,gene MT1988 (Rv1938 cphB),−2.344
same,Counts per million (CPM) WT_HC101A,gene MT1989 (Rv1939),13.56 CPM and 7.389 CPM
same,log2 Fold change,gene MT1989 (Rv1939),−2.045
same,Counts per million (CPM) WT_HC101A,gene MT2007,22.23 CPM and 14.6 CPM
same,log2 Fold change,gene MT2007,−1.243
same,Counts per million (CPM) WT_HC101A,gene MT2016 (Rv1964),104.5 CPM and 57.78 CPM
same,log2 Fold change,gene MT2016 (Rv1964),−1.754
same,Counts per million (CPM) WT_HC101A,gene MT2017,43.41 CPM and 25.54 CPM
same,log2 Fold change,gene MT2017,−2.544
same,Counts per million (CPM) WT_HC101A,gene MT2018 (Rv1966 mce3),50.34 CPM and 26.88 CPM
same,log2 Fold change,gene MT2018 (Rv1966 mce3),−2.558
same,Counts per million (CPM) WT_HC101A,gene MT2019 (Rv1967),52.89 CPM and 27.87 CPM
same,log2 Fold change,gene MT2019 (Rv1967),−2.496
same,log2 Fold change,gene MT2020 Rv1968,−2.621
same,Counts per million (CPM) WT_HC101A,gene MT2021 (Rv1969),23.73 CPM and 17.45 CPM
same,log2 Fold change,gene MT2021 (Rv1969),−1.799
same,Counts per million (CPM) WT_HC101A,gene MT2022 (Rv1970 lprM),37.39 CPM and 24.44 CPM
same,log2 Fold change,gene MT2022 (Rv1970 lprM),−2.347
same,Counts per million (CPM) WT_HC101A,gene MT2023 (Rv1971),53.54 CPM and 31.19 CPM
same,log2 Fold change,gene MT2023 (Rv1971),−2.293
same,Counts per million (CPM) WT_HC101A,gene MT2024 (Rv1972),16.15 CPM and 10.41 CPM
same,log2 Fold change,gene MT2024 (Rv1972),−1.124
same,Counts per million (CPM) WT_HC101A,gene MT2042.1,19.87 CPM and 29.96 CPM
same,log2 Fold change,gene MT2042.1,−1.522
same,Counts per million (CPM) WT_HC101A,gene MT2050 (Rv2004c),234 CPM and 227.9 CPM
same,log2 Fold change,gene MT2050 (Rv2004c),−3.602
same,Counts per million (CPM) WT_HC101A,gene MT2051 (Rv2005c),149.3 CPM and 179.3 CPM
same,log2 Fold change,gene MT2051 (Rv2005c),−3.859
same,Counts per million (CPM) WT_HC101A,gene MT2052 (Rv1996),177.9 CPM and 195.4 CPM
same,log2 Fold change,gene MT2052 (Rv1996),−7.087
same,Counts per million (CPM) WT_HC101A,gene MT2052 (Rv2006 otsB),122.8 CPM and 137.5 CPM
same,log2 Fold change,gene MT2052 (Rv2006 otsB),−2.478
same,Counts per million (CPM) WT_HC101A,gene MT2053 (Rv1997 ctpF),70.21 CPM and 92.04 CPM
same,log2 Fold change,gene MT2053 (Rv1997 ctpF),4.931
same,log2 Fold change,gene MT2053 (Rv2007c fdxA),−3.149
same,Counts per million (CPM) WT_HC101A,gene MT2059 (Rv2003c),101.8 CPM and 119.9 CPM
same,log2 Fold change,gene MT2059 (Rv2003c),−2.726
same,Counts per million (CPM) WT_HC101A,gene MT2079 (Rv2023c),11.24 CPM and 12.86 CPM
same,log2 Fold change,gene MT2079 (Rv2023c),−1.5
same,Counts per million (CPM) WT_HC101A,gene MT2080,28.31 CPM and 33.92 CPM
same,log2 Fold change,gene MT2080,−1.521
same,Counts per million (CPM) WT_HC101A,gene MT2086 (Rv2027c),56.35 CPM and 58.94 CPM
same,log2 Fold change,gene MT2086 (Rv2027c),−2.22
same,log2 Fold change,gene MT2087 Rv2028c,−3.553
same,Counts per million (CPM) WT_HC101A,gene MT2088,91.91 CPM and 170.4 CPM
same,log2 Fold change,gene MT2088,−4.873
same,log2 Fold change,gene MT2089 Rv2030c,−4.16
same,log2 Fold change,gene MT2090,−5.249
same,log2 Fold change,gene MT2091 Rv2032,−4.893
same,Counts per million (CPM) WT_HC101A,gene MT2156 (Rv2107 PE),20.07 CPM and 13.38 CPM
same,log2 Fold change,gene MT2156 (Rv2107 PE),−1.59
same,Counts per million (CPM) WT_HC101A,gene MT2278 (Rv2220 glnAl),436.2 CPM and 385.9 CPM
same,log2 Fold change,gene MT2278 (Rv2220 glnAl),−1.475
same,Counts per million (CPM) WT_HC101A,gene MT2304 (Rv2244 acpM),626.7 CPM and 987.4 CPM
same,log2 Fold change,gene MT2304 (Rv2244 acpM),−2.163
same,log2 Fold change,gene MT2305 (Rv2245 kasA),−1.728
same,Counts per million (CPM) WT_HC101A,gene MT2306,581.8 CPM and 834.9 CPM
same,log2 Fold change,gene MT2306,−1.559
same,log2 Fold change,gene MT2307 (Rv2247 accD6),−1.121
same,Counts per million (CPM) WT_HC101A,gene MT2329 (Rv2267c),24.25 CPM and 27 CPM
same,log2 Fold change,gene MT2329 (Rv2267c),−1.234
